Numbers after ± are expanded uncertainties.
Columns and labels:
[1] = 308.15 K; 101 kPa; Liquid; Vibrating tube method
[2] = mn = molality of the nth substance listed, in mol/kg; settings: 308.15 K; 101 kPa; Liquid; Vibrating tube method; m2 = 0

Row | SMILES | mass density [1] [kg/m3] | mass density [2] [kg/m3]
1 | O [water] | 994.058 ± 0.044 | –
2 | O [water] + CC(=O)[O-].CCCCn1cc[n+](C)c1 | – | 994.058 ± 0.11
3 | O [water] + CCCCn1cc[n+](C)c1.F[B-](F)(F)F | – | 994.058 ± 0.055
4 | O [water] + CCCCn1cc[n+](C)c1.O=S(=O)([O-])C(F)(F)F | – | 994.058 ± 0.079
5 | O [water] + CCCCn1cc[n+](C)c1.[Br-] | – | 994.058 ± 0.064
6 | O [water] + CCCCn1cc[n+](C)c1.[Cl-] | – | 994.058 ± 0.044
7 | O [water] + CCCCn1cc[n+](C)c1.[I-] | – | 994.058 ± 0.092
